Assay results taken from PubChem BioAssay AID2060614 (Molecular Pharmacology Branch, DTP, NCI, 2025).
Where “and” joins values, the source holds several entries; their conditions need not be identical. Equal entries are not always repeated.

Tested on: 598228-144-R-J1-PDC complex spheroids, viability
Assay: Anticancer human tumor 598228-144-R-J1-PDC patient-derived serous endometrial adenocarcinoma cell line growth inhibition [CLK]
Settings: for viability, T/C: stronger effect = lower value
From the text: A high-throughput screen of multi-cell type tumor spheroids was designed to identify active combinations of […] and targeted small molecules. Complex spheroids include a stromal component modeled by human endothelial cells (HUVEC) and fibroblasts modeled by human mesenchymal stem cells (MSCs). The concentration ranges selected for each drug and investigational agent were based upon clinically achievable concentrations if the clinical Cmax of the agent was known.
Compounds. The drugs and investigational agents: cirtuvivint (SM08502; NSC835563), CC-671 (NSC850746), vemurafenib (NSC761431), tapotoclax (NSC804041), sotorasib (NSC818433), adagrasib (NSC831453), MRTX-1133 (NSC836407), BAY2416964 (NSC825713), copanlisib (NSC816437), inavolisib (NSC800729), abemaciclib (NSC768073), osimertinib (NSC779217), entinostat (NSC756642), eltanexor (KPT-8602, NSC794443), venetoclax (NSC766270), ceralasertib (NSC777638), bortezomib (NSC756655), olaparib (NSC753686), talazoparib (NSC767125), alisertib (NSC759677), peposertib (NSC802822), gemcitabine (NSC613327), 5-fluorouracil (NSC19893), SN-38 (NSC673596), oxaliplatin (NSC266046), paclitaxel (NSC125973), and doxorubicin (NSC123127), were obtained from the National Cancer Institute (NCI) Developmental Therapeutics Program Chemical Repository. The FDA-approved anticancer drug set is available from the Developmental Therapeutics Program at https://dtp.cancer.gov/organization/dscb/obtaining/available plates.htm. […] The stock solutions were prepared in dimethyl sulfoxide (DMSO, Sigma-Aldrich, St. Louis, MO, cat. D2650), except for the platinum complexes which were prepared in saline (Quality Biological, Gaithersburg, MD, cat. 114-055-101), at 800-fold the tested concentration and stored at -70 degrees C prior to their use. All drugs and investigational agents were tested over a range starting from a high concentration at or near the clinical Cmax and decreasing in half-log increments. If the clinical Cmax for an agent had not been determined, the highest concentration tested was 10 microM.
Cell Culture. All cells were maintained in an incubator at 37 degrees C and 5% CO2 with 95% humidity. The PDC lines were cultured according to standard operating procedures established by the NCI PDMR. Briefly, all PDCs were thawed and cultured in Matrigel-coated flasks prepared with a working solution of 1X Ham's F-12 nutrient mix, without supplementation (Invitrogen, Waltham, MA, cat. 11765054), 100 U/mL penicillin-streptomycin (Invitrogen, cat. 15140122), and 2.5% Matrigel (Corning Inc., Corning, NY, cat. 354248) for the first three passages. The 947758-054-R-J2-PDC line was cultured in 6B/Colon 1A media, which includes advanced DMEM/F-12 (Thermo Fisher Scientific, cat. 12634028), 10 mM HEPES (Thermo Fisher Scientific, cat. 15630080), 1X GlutaMAX supplement (Thermo Fisher Scientific, cat. 35050061), 0.1 mg/mL primocin (InvivoGen, cat. ant-pm-2), 10% defined fetal bovine serum, heat inactivated (HyClone Laboratories Inc., cat. SH30070.03HI), 1.25 mM N-Acetyl-L-cysteine (Sigma-Aldrich, cat. A9165), 10 mM nicotinamide (Sigma-Aldrich, cat. N0636), 1X B-27 supplement (Thermo Fisher Scientific, cat. 17504044), 1X N-2 supplement (Thermo Fisher Scientific, cat. 17502048), and 10 microM Y-27632 dihydrochloride (Tocris Bioscience, cat. 1254). The 876862-298-R-J1-PDC was cultured in 6E media, which includes all 6B/Colon 1A media components plus 50% L-WRN conditioned media (ATCC, cat. CRL-3276), 50 ng/mL recombinant human EGF recombinant protein (hEGF; Thermo Fisher Scientific, cat. PHG0311), 10 ng/mL recombinant human fibroblast growth factor 10 (hGFG-10; PeproTech, cat. 100-26), 1 ng/mL recombinant human fibroblast growth factor 2 (hFGF-2; PeproTech, cat. 100-18B), and 1 µM prostaglandin E2 (PGE2; Tocris, cat. 2296). The 227483-062-R1-J1-PDC line was cultured in Panc media, containing all 6E components except hFGF-2, with the addition of 500 nM SB-431542 (Selleckchem, cat. S1067) and 10 nM gastrin (Tocris, cat. 3006). […]
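Note: spheroids exposed to compounds for seven days before readout.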
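Throughout, for viability, T/C: 100% = DMSO vehicle control wells.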

IC50 (curve of compound) | SMILES | viability, T/C (compound 0.0316 µM) | viability, T/C (compound 0.1 µM) | viability, T/C (compound 0.316 µM) | viability, T/C (compound 1 µM) | viability, T/C (compound 3.16 µM) | viability, T/C (compound 10 µM) | other results
> 10000 nM | C=CC(=O)N1CCN(c2nc(=O)n(-c3c(C)ccnc3C(C)C)c3nc(-c4c(O)cccc4F)c(F)cc23)C(C)C1 (configuration not stated) | 95% and 99.2% | 94.5% and 92.9% | 98.5% and 113% | 108% and 115% | 107% and 117% | 98% and 109% | 
> 10000 nM and 8390 nM | CCCS(=O)(=O)Nc1ccc(F)c(C(=O)c2c[nH]c3ncc(-c4ccc(Cl)cc4)cc23)c1F | 95.3% and 98.7% | 119% and 92.2% | 92.5% and 90.5% | 106% and 90.1% | 89.6% and 81.8% | 55.9% and 44.1% | 
> 1000 nM | CCN1CCN(Cc2ccc(Nc3ncc(F)c(-c4cc(F)c5nc(C)n(C(C)C)c5c4)n3)nc2)CC1 | 92.4% and 109% | 99.5% and 96.7% | 103% and 93.4% | 92.4% and 82.3% |  |  | viability, T/C (compound 0.00316 µM): 99.8% and 91.7%; viability, T/C (compound 0.01 µM): 94.1% and 88%
713 nM and 1280 nM | Nc1ccccc1NC(=O)c1ccc(CNC(=O)OCc2cccnc2)cc1 | 104% and 85.5% | 94.5% and 92.8% | 78.2% and 73.5% | 35.4% and 61.1% | 20% and 20.5% | 3.38% and 10.9% | 
< 31.6 nM | Nc1ccn(C2OC(CO)C(O)C2(F)F)c(=O)n1 (configuration not stated) | 32.7% and 37.1% | 24.5% and 31.8% | 20.6% and 26.5% | 24.4% and 28% | 21.4% and 36.8% | 22% and 27.7% | 
> 10000 nM | O=C(c1cc(Cc2n[nH]c(=O)c3ccccc23)ccc1F)N1CCN(C(=O)C2CC2)CC1 | 93.1% and 97.7% | 87.5% and 104% | 95.4% and 94.2% | 94.4% and 105% | 97.5% and 103% | 88% and 87.2% | 
> 10000 nM | O=c1[nH]cc(F)c(=O)[nH]1 | 106% and 89.1% | 94.6% and 96.1% | 101% and 88.6% | 97.6% and 99.6% | 99.3% and 88.9% | 74.2% and 77.3% | 

Continued, molecule first:

SMILES | IC50 (curve of compound) | viability, T/C (compound 0.0316 µM) | viability, T/C (compound 0.1 µM) | viability, T/C (compound 0.316 µM) | viability, T/C (compound 1 µM) | viability, T/C (compound 3.16 µM) | viability, T/C (compound 10 µM) | other results
C#Cc1c(F)ccc2cc(O)cc(-c3ncc4c(N5CC6CCC(C5)N6)nc(OCC56CCCN5CC(F)C6)nc4c3F)c12 (configuration not stated) | > 10000 nM | 99.8% and 98.6% | 101% and 103% | 108% and 112% | 103% and 100% | 102% and 103% | 97.9% and 102% | 
C=C(F)C(=O)N1CCN(c2nc(OCC3CCCN3C)nc3c2CCN(c2cccc4cccc(Cl)c24)C3)CC1CC#N (configuration not stated) | 4230 nM and 4300 nM | 91% and 112% | 107% and 89.4% | 97.2% and 105% | 109% and 103% | 66.6% and 68.1% | 0.83% and 0.61% | 
C=CC(=O)Nc1cc(Nc2nccc(-c3cn(C)c4ccccc34)n2)c(OC)cc1N(C)CCN(C)C | > 300 nM |  |  |  |  |  |  | viability, T/C (compound 0.000949 µM): 106% and 86.2%; viability, T/C (compound 0.003 µM): 95.3% and 97.7%; viability, T/C (compound 0.00949 µM): 108% and 95.7%; viability, T/C (compound 0.03 µM): 93.7% and 93.5%; viability, T/C (compound 0.0949 µM): 99.3% and 92.6%; viability, T/C (compound 0.3 µM): 92.1% and 94.7%
CC(=O)O[C@H]1C(=O)[C@@]2(C)[C@H]([C@H](OC(=O)c3ccccc3)[C@]3(O)C[C@H](OC(=O)[C@H](O)[C@@H](NC(=O)c4ccccc4)c4ccccc4)C(C)=C1C3(C)C)[C@]1(OC(C)=O)CO[C@@H]1C[C@@H]2O | < 31.6 nM | 35.4% and 37% | 33.6% and 37% | 31% and 30.4% | 25.1% and 34.2% | 32.1% and 36.1% | 32.5% and 47.5% | 
CC(C)CC(NC(=O)C(Cc1ccccc1)NC(=O)c1cnccn1)B(O)O (configuration not stated) | 3.7 nM and 4.15 nM |  |  |  |  |  |  | viability, T/C (compound 0.000949 µM): 96.3% and 107%; viability, T/C (compound 0.003 µM): 60.7% and 68.6%; viability, T/C (compound 0.00949 µM): 1.72% and 2.43%; viability, T/C (compound 0.03 µM): 2.65% and 0.78%; viability, T/C (compound 0.0949 µM): 0.47% and 0.54%; viability, T/C (compound 0.3 µM): 1.72% and 0.37%
CC(CO)NC(=O)c1cc(-c2ccc(Cl)cc2)nn(-c2cnn(C)c2)c1=O (configuration not stated) | > 10000 nM | 92.9% and 110% | 89.4% and 109% | 98.2% and 116% | 98.4% and 106% | 76.6% and 111% | 89.9% and 73.9% | 
CC(Nc1ccc2c(c1)OCCn1cc(N3C(=O)OCC3C(F)F)nc1-2)C(N)=O (configuration not stated) | 418 nM and 264 nM | 82.3% and 77.2% | 67.8% and 63.2% | 48% and 46.3% | 46.3% and 36.9% | 33.6% and 29.7% | 28.9% and 24% | 
CC1(C)CCC(CN2CCN(c3ccc(C(=O)NS(=O)(=O)c4ccc(NCC5CCOCC5)c([N+](=O)[O-])c4)c(Oc4cnc5[nH]ccc5c4)c3)CC2)=C(c2ccc(Cl)cc2)C1 | 7360 nM and 6720 nM | 107% and 88.7% | 89.8% and 91.9% | 89.7% and 89.9% | 104% and 105% | 101% and 94.9% | 32.4% and 26.7% | 
CC1COCCN1c1cc(C2(S(C)(=N)=O)CC2)nc(-c2ccnc3[nH]ccc23)n1 (configuration not stated) | 4040 nM and 5180 nM | 96.7% and 86.2% | 110% and 86.8% | 98.8% and 87.7% | 72.7% and 79% | 58.1% and 61.5% | 34.3% and 34.9% | 
CCc1c2c(nc3ccc(O)cc13)-c1cc3c(c(=O)n1C2)COC(=O)[C@]3(O)CC | 20.8 nM and 12.6 nM | 45% and 44.2% | 29% and 22.6% | 16.5% and 15.5% | 4.57% and 6.27% |  |  | viability, T/C (compound 0.00316 µM): 54.7% and 48.2%; viability, T/C (compound 0.01 µM): 61.4% and 56.1%
CNC(=O)c1ccc(Nc2nc(OC3CCCC3)c3c(-c4ccc5nc(C)oc5c4)c[nH]c3n2)c(OC)c1 |  | 89.3% [middle of 4 runs] |  |  | 101% [middle of 12 runs] | 94.7% [middle of 12 runs] | 101% [middle of 12 runs] | IC50 (compound alone, run of 09/19/2023): > 10000 nM
COC1C=CCC(C)C(C)S(=O)(=O)NC(=O)c2ccc3c(c2)N(CC2CCC21)CC1(CCCc2cc(Cl)ccc21)CO3 (configuration not stated) | 1870 nM and 1810 nM | 106% and 108% | 80.2% and 85.4% | 61% and 66.5% | 55.6% and 58.4% | 56.3% and 56.4% | 34.4% and 20.1% | 
COc1c(OCCCN2CCOCC2)ccc2c3n(c(=NC(=O)c4cnc(N)nc4)nc12)CCN3 | 34.6 nM and 17.5 nM | 52.9% and 45.3% | 34.8% and 27.9% | 19.3% and 14.2% | 8.63% and 7.29% |  |  | viability, T/C (compound 0.00316 µM): 80.5% and 77.9%; viability, T/C (compound 0.01 µM): 65.1% and 53.3%
Cn1ncnc1[C@H]1c2n[nH]c(=O)c3cc(F)cc(c23)N[C@@H]1c1ccc(F)cc1 | > 100 nM | 95.8% and 103% | 76.3% and 84.7% |  |  |  |  | viability, T/C (compound 0.000316 µM): 111% and 95.5%; viability, T/C (compound 0.001 µM): 103% and 114%; viability, T/C (compound 0.00316 µM): 81.5% and 109%; viability, T/C (compound 0.01 µM): 83.8% and 101%
NC(=O)C(=Cn1cnc(-c2cc(C(F)(F)F)cc(C(F)(F)F)c2)n1)c1cncnc1 | 114 nM and 232 nM |  |  |  |  |  |  | viability, T/C (compound 0.00949 µM): 89% and 103%; viability, T/C (compound 0.03 µM): 80.9% and 101%; viability, T/C (compound 0.0949 µM): 52.1% and 86.2%; viability, T/C (compound 0.3 µM): 32% and 38.9%; viability, T/C (compound 0.949 µM): 15% and 30.6%; viability, T/C (compound 3 µM): 18.1% and 21.5%
